The values that follow come from US20150344485A1, “BICYCLIC PYRIMIDONE COMPOUNDS AS INHIBITORS OF LP-PLA2” (GLAXOSMITHKLINE INTELLECTUAL PROPERTY DEVELOPMENT LIMITED, priority 2013, published 2015).

Test [1] has as its target T1, recombinant human Lp-PLA2 (Homo sapiens, UniProt Q13093).
T1 sequence (Q13093 22-441): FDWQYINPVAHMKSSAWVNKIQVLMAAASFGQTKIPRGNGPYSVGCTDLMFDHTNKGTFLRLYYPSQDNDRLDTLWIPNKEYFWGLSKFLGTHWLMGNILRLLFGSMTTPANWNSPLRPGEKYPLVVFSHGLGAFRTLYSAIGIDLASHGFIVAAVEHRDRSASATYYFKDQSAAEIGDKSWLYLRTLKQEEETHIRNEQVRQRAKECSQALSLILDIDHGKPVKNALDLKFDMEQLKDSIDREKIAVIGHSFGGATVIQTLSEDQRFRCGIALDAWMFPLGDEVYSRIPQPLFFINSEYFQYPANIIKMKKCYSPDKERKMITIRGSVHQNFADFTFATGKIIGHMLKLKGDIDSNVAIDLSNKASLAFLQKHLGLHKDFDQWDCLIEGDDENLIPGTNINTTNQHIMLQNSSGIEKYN
As to the kind of experiment: Recombinant human Lp-PLA2 assay (rhLp-PLA2, PED6 assay). In kind it is biochemical. The source says: (1) Recombinant Human Lp-PLA2 Assay (rhLp-PLA2) (Also Referred to as “PED6” Assay)
N-((6-(2,4-dinitrophenyl)amino)-hexanoyl)-2-(4,4-difluoro-5,7-dimethyl-4-bora-3a,4a-diaza-s-indacene-3-pentanoyl)-1-hexadecanoyl-sn-glycero-3-phosphoethanolamine, triethylammonium salt (PED6) is a commercially available fluorescently-labeled phospholipid, which is commercially available from Invitrogene and Molecular Probes. There is a quenching para-nitro phenyl (PNP) group in the sn3 position and a Bodipy fluorescein (FL) group in the sn2 position. Upon cleavage with Lp-PLA2, the Bodipy FL group is liberated and then may result in an increase in fluorescence. Inhibitors of Lp-PLA2 therefore prevent this cleavage and no fluorescent increase is observed.
The PED6 assay was run as an unquenched 10 μL assay. The source plate containing the compounds to be tested was prepared by making 1:3 (by volume) serial dilution of the compounds within DMSO on 384-well microplate. Then, 0.01 μL of the compounds on compound source plate were transferred into 384 well Greiner 784076 (black) plates using ECHO liquid dispenser. 5 μL of recombinant human Lp-PLA2 enzyme (4 nM (or 110 pM) rhLp-PLA2 in assay buffer of 50 mM HEPES, pH 7.4, 150 mM NaCl, 1 mM CHAPS) was added to each well of the plate. Plates were centrifuged for 10 sec at 500 rpm. After 30 minutes preincubation, 5 μL of substrate (4 μM (or 5 μM) PED6 [from 5 mM DMSO stock] in assay buffer of 50 mM HEPES, pH 7.4, 150 mM NaCl, 1 mM CHAPS) was added to 384 well Greiner 784076 (black) plates. Plates were centrifuged for 10 sec at 500 rpm. The plate was covered to protect it from light and incubated for 20 min at room temperature. The plates were read for fluorescence intensity at ex: 480/em: 540 using ViewLux microplate imager for Envision spectrofluroimeters. pIC50 data, curve and QC analysis was conducted by using XL fit module in Excel.

Test [2] has as its target T2, Lp-PLA2 in human plasma (Homo sapiens, UniProt Q13093).
T2 construct: from tissue; host or cells: pooled human plasma
T2 sequence (Q13093 22-441): T1 sequence (Q13093 22-441)
Description: Lp-PLA2 human plasma assay (Thio-PAF assay). In kind it is biochemical. The note with it: pooled human plasma; read-out: pIC50 values in the thio-PAF assay (converted). The source says: The human plasma assay utilizes a thioester analog of PAF (phosphatidylcholine), where hydrolysis yields to the formation of a phospholipid containing a free thiol group. The amount of thiol is quantitated continuously by reacting with CPM (7-diethylamino-3-(4′-maleimidylphenyl)-4-methylcoumarin), a maleimide which increases in fluoresence after Michael addition of thiols. This assay may detect the activity of Lp-PLA2 in human plasma, as determined by specific inhibition by Lp-PLA2 inhibitors.
The thio-PAF assay was run as a quenched 15 μL assay. Compounds source plate was prepared by making 1:3 (by volume) serial dilution of the compounds into pure DMSO on 384-well microplate. 0.01 μL of compounds on compound source plate were transferred to 384 well Greiner 784076 (black) low-volume plates by ECHO liquid dispenser. 8 μL pooled human plasma, which was previously aliquoted and frozen, was added. Plates were centrifuged for 10 sec at 500 rpm. After 30 minutes preincubation, 2 μL of substrate solution comprising 2.5 mM 2-thio-PAF [from ethanol stock], 32 μM CPM [from a DMSO stock] and 3.2 mM NEM (N-ethylmaleimide) [made fresh daily in DMSO] in assay buffer of 50 mM HEPES, pH 7.4, 150 mM NaCl, 1 mM CHAPS was added to 384 well Greiner 784076 (black) low-volume plates by BRAVO liquid handling station. After 2 mins, reaction was quenched with 5 μL of 5% aqueous trifluoroacetic acid (TFA). Plates were covered to protect from light and incubated for 40 min at room temperature. Plates were read at ex: 380/em: 485 using-Envision microplate reader. pIC50 data, curve and QC analysis was conducted by using XLFit module in Excel.

Where [3] appears, read: read-out: pIC50 values in the recombinant human Lp-PLA2 assay (converted).
The mark [4] stands for this setting: read-out: rhLp-PLA2 (PED6 assay) (pIC50) (converted).

Where two headings read alike, the source gives them in different places.

`CC1CCn2c(cc(OCc3ccc(Oc4ccc(C(F)(F)F)nc4)c(F)c3)nc2=O)N1` (stereo not shown) [E1, 8-((3-fluoro-4-((6-(trifluoromethyl)pyridin-3-yl)oxy)benzyl)oxy)-2-methyl-3,4-dihydro-1H-pyrimido[1,6-a]pyrimidin-6(2H)-one]: the values for the IC50 in test [1] (setting [3]) and in test [2] were ≤ 1 nM and ≤ 100 nM, respectively.

Consider `CC1CCn2c(cc(OCc3ccc(Oc4ccc(C(F)(F)F)cc4)c(C#N)c3)nc2=O)N1` (stereo not shown) [E2, 5-(((2-methyl-6-oxo-2,3,4,6-tetrahydro-1H-pyrimido[1,6-a]pyrimidin-8-yl)oxy)methyl)-2-(4-(trifluoromethyl)phenoxy)benzonitrile], for which the IC50 in test [1] (setting [3]) was ≤ 1 nM; in test [1] (setting [4]) it was 0.126 nM; in test [2], ≤ 100 nM.

For `CC1CCn2c(cc(OCc3ccc(Oc4ccc(F)c(F)c4)c(F)c3)nc2=O)N1` (stereo not shown) [E3, 8-((4-(3,4-difluorophenoxy)-3-fluorobenzyl)oxy)-2-methyl-3,4-dihydro-1H-pyrimido[1,6-a]pyrimidin-6(2H)-one], the IC50 in test [1] (setting [3]) was ≤ 1 nM; in test [2], ≤ 100 nM.

As to `CC1CCn2c(cc(OCc3ccc(F)c(F)c3)nc2=O)N1` (stereo not shown) [E4, 8-((3,4-difluorobenzyl)oxy)-2-methyl-3,4-dihydro-1H-pyrimido[1,6-a]pyrimidin-6(2H)-one], the IC50 was 3.16 nM in test [1] (setting [4]) and ≤ 100 nM in test [2].

In the case of `CC1CCn2c(cc(OCc3cc(F)c(Oc4cccc(F)c4)c(F)c3)nc2=O)N1` (stereo not shown) [E5, 8-((3,5-difluoro-4-(3-fluorophenoxy)benzyl)oxy)-2-methyl-3,4-dihydro-1H-pyrimido[1,6-a]pyrimidin-6(2H)-one], the IC50 in test [1] (setting [3]) was ≤ 1 nM; in test [1] (setting [4]) it was 0.398 nM.

Take `CC1CCn2c(cc(OCc3ccc(Oc4ccc(Cl)c(F)c4)c(C#N)c3)nc2=O)N1` (stereo not shown) [E6, 2-(4-chloro-3-fluorophenoxy)-5-(((2-methyl-6-oxo-2,3,4,6-tetrahydro-1H-pyrimido[1,6-a]pyrimidin-8-yl)oxy)methyl)benzonitrile]: the IC50 in test [1] (setting [3]) was ≤ 1 nM; in test [2], ≤ 100 nM.

In the case of `CC1CCn2c(cc(OCc3ccc(F)c(F)c3)nc2=O)N1C` (stereo not shown) [E7, 8-((3,4-difluorobenzyl)oxy)-1,2-dimethyl-3,4-dihydro-1H-pyrimido[1,6-a]pyrimidin-6(2H)-one], the IC50 in test [1] (setting [3]) is ≤ 1 nM; in test [2], ≤ 100 nM.

Take `CC1CCn2c(cc(OCc3cc(F)c(F)c(F)c3)nc2=O)N1C` (stereo not shown) [E8, 1,2-dimethyl-8-((3,4,5-trifluorobenzyl)oxy)-3,4-dihydro-1H-pyrimido[1,6-a]pyrimidin-6(2H)-one]: the results for the IC50 in test [1] (setting [3]), in test [1] (setting [4]) and in test [2] were ≤ 1 nM, 0.398 nM and ≤ 100 nM, respectively.

As to `[2H]C([2H])(Oc1cc2n(c(=O)n1)CC[C@@H](C)N2C)c1cc(F)c(F)cc1F` [E23, (R)-8-(dideutero(2,4,5-trifluorophenyl)methoxy)-1,2-dimethyl-3,4-dihydro-1H-pyrimido[1,6-a]pyrimidin-6(2H)-one], the IC50 in test [1] (setting [4]) was 12.6 nM.

As to `C[C@@H]1CCn2c(cc(OCc3ccc(F)c(F)c3)nc2=O)N1` [E28, (R)-8-((3,4-difluorobenzyl)oxy)-2-methyl-3,4-dihydro-1H-pyrimido[1,6-a]pyrimidin-6(2H)-one], the IC50 in test [1] (setting [3]) was ≤ 1 nM; in test [2] it was ≤ 100 nM.

For `C[C@@H]1CCn2c(cc(OCc3cc(F)c(F)c(F)c3)nc2=O)N1` [E29, (R)-2-methyl-8-((3,4,5-trifluorobenzyl)oxy)-3,4-dihydro-1H-pyrimido[1,6-a]pyrimidin-6(2H)-one], the IC50 was 1.26 nM in test [1] (setting [4]) and ≤ 100 nM in test [2].

As for `C[C@H]1CCn2c(cc(OCc3cc(F)c(F)c(F)c3)nc2=O)N1C` [E35, (S)-1,2-dimethyl-8-((3,4,5-trifluorobenzyl)oxy)-3,4-dihydro-1H-pyrimido[1,6-a]pyrimidin-6(2H)-one], the IC50 in test [1] (setting [3]) is ≤ 1 nM; in test [2], ≤ 100 nM.

In the case of `C[C@H]1CCn2c(cc(OCc3ccc(F)c(F)c3)nc2=O)N1C` [E37, (S)-8-((3,4-difluorobenzyl)oxy)-1,2-dimethyl-3,4-dihydro-1H-pyrimido[1,6-a]pyrimidin-6(2H)-one], the IC50 is ≤ 1 nM in test [1] (setting [3]) and ≤ 100 nM in test [2].

Turning to `C[C@@H]1CCn2c(cc(OCc3ccc(OC4CCCC4)c(F)c3)nc2=O)N1C` [E48, (R)-8-((4-(cyclopentyloxy)-3-fluorobenzyl)oxy)-1,2-dimethyl-3,4-dihydro-1H-pyrimido[1,6-a]pyrimidin-6(2H)-one], in test [1] (setting [4]), the IC50 is 7.94 nM.

Regarding `CC(C)Oc1ccc(COc2cc3n(c(=O)n2)CC[C@@H](C)N3C)cc1F` [E51, (R)-8-((3-fluoro-4-isopropoxybenzyl)oxy)-1,2-dimethyl-3,4-dihydro-1H-pyrimido[1,6-a]pyrimidin-6(2H)-one], in test [1] (setting [4]), the IC50 was 50.1 nM.

As to `C[C@@H]1CCn2c(cc(OCc3ccc(OC4CCCCC4)c(F)c3)nc2=O)N1C` [E67, (R)-8-((4-(cyclohexyloxy)-3-fluorobenzyl)oxy)-1,2-dimethyl-3,4-dihydro-1H-pyrimido[1,6-a]pyrimidin-6(2H)-one], in test [1] (setting [4]), the IC50 was 5.01 nM.

For the compound `CC(C)N1c2cc(OCc3ccc(F)c(F)c3)nc(=O)n2CC[C@H]1C` [E69, (R)-8-((3,4-difluorobenzyl)oxy)-1-isopropyl-2-methyl-3,4-dihydro-1H-pyrimido[1,6-a]pyrimidin-6(2H)-one], the IC50 in test [1] (setting [3]) is ≤ 1 nM.

On to `C[C@H]1CCn2c(cc(OCc3cc(F)c(OC4CCCCC4)c(F)c3)nc2=O)N1C` [E81, (S)-8-((4-(cyclohexyloxy)-3,5-difluorobenzyl)oxy)-1,2-dimethyl-3,4-dihydro-1H-pyrimido[1,6-a]pyrimidin-6(2H)-one], for which the IC50 in test [1] (setting [3]) was ≤ 1 nM.

As to `CC(C)Oc1c(F)cc(COc2cc3n(c(=O)n2)CC[C@@H](C)N3C)cc1F` [E82, (R)-8-((3,5-difluoro-4-isopropoxybenzyl)oxy)-1,2-dimethyl-3,4-dihydro-1H-pyrimido[1,6-a]pyrimidin-6(2H)-one], the results for the IC50 in test [1] (setting [3]) and in test [1] (setting [4]) were ≤ 1 nM and 0.126 nM, respectively.

As for `C[C@@H]1CCn2c(cc(OCc3cc(F)c(OC4CCCCC4)c(F)c3)nc2=O)N1C` [E83, (R)-8-((4-(cyclohexyloxy)-3,5-difluorobenzyl)oxy)-1,2-dimethyl-3,4-dihydro-1H-pyrimido[1,6-a]pyrimidin-6(2H)-one], the IC50 in test [1] (setting [3]) is ≤ 1 nM.

For the compound `CC(C)Oc1c(F)cc(COc2cc3n(c(=O)n2)CC[C@H](C)N3C)cc1F` [E100, (S)-8-((3,5-difluoro-4-isopropoxybenzyl)oxy)-1,2-dimethyl-3,4-dihydro-1H-pyrimido[1,6-a]pyrimidin-6(2H)-one], the IC50 in test [1] (setting [3]) is ≤ 1 nM.

Regarding `C[C@H]1CCn2c(cc(OCc3ccc(Oc4cc(F)cc(F)c4)cc3)nc2=O)N1C` [E141, (S)-8-((4-(3,5-difluorophenoxy)benzyl)oxy)-1,2-dimethyl-3,4-dihydro-1H-pyrimido[1,6-a]pyrimidin-6(2H)-one], the IC50 in test [1] (setting [3]) was ≤ 1 nM.
